We go through 39 compounds from patent US10889573B2, “Anthelmintic quinoline-3-carboxamide derivatives” (Bayer Animal Health GMBH, priority 2016, dated 2021).

A word on the EC50: it is the concentration giving half of the maximal effect. The term mortality denotes the percentage killed.

One series addresses C. elegans Slo-1a (Caenorhabditis elegans, UniProt Q95V25). To be noted: pE50 (negative decadic logarithm of EC50), CHO cells expressing C. elegans Slo-1a, voltage sensitive dye.
The subject of series [1] is Dirofilaria immitis microfilariae. Put plainly: In vitro assay 3: Dirofilaria immitis microfilariae (DIROIM L1), motility. To be noted: 72 h, read-out: EC50 (reduction of motility), 72 h incubation.
In series [2] the test system is Nippostrongylus brasiliensis. Put plainly: In vitro assay 2: Nippostrongylus brasiliensis (NIPOBR), acetylcholine esterase readout. To be noted: read-out: activity (reduction of AChE compared to negative control); for inhibition at 10 µg/mL: 10 μg/ml; for inhibition at 1 µg/mL: 1 μg/ml. The procedure: In Vitro Assay 2: Nippostrongylus brasiliensis (NIPOBR)
Adult Nippostrongylus brasiliensis were washed with saline buffer containing 100 U/ml penicillin, 0.1 mg/ml streptomycin and 2.5 μg/ml amphotericin B. Test compounds were dissolved in DMSO and worms were incubated in medium in a final concentration of 10 μg/ml (10 ppm) respectively 1 μg/ml (1 ppm). An aliquot of the medium was used to determine the acetylcholine esterase activity in comparison to a negative control. The principle of measuring acetylcholine esterase as readout for anthelmintic activity was described in Rapson et al (1986) and Rapson et al (1987).

Another series has as its system Haemonchus contortus. To be noted: 120 h, read-out: activity (larval mortality).

The structures appear in SMILES notation.

Sequence of C. elegans Slo-1a (Q95V25 whole entry): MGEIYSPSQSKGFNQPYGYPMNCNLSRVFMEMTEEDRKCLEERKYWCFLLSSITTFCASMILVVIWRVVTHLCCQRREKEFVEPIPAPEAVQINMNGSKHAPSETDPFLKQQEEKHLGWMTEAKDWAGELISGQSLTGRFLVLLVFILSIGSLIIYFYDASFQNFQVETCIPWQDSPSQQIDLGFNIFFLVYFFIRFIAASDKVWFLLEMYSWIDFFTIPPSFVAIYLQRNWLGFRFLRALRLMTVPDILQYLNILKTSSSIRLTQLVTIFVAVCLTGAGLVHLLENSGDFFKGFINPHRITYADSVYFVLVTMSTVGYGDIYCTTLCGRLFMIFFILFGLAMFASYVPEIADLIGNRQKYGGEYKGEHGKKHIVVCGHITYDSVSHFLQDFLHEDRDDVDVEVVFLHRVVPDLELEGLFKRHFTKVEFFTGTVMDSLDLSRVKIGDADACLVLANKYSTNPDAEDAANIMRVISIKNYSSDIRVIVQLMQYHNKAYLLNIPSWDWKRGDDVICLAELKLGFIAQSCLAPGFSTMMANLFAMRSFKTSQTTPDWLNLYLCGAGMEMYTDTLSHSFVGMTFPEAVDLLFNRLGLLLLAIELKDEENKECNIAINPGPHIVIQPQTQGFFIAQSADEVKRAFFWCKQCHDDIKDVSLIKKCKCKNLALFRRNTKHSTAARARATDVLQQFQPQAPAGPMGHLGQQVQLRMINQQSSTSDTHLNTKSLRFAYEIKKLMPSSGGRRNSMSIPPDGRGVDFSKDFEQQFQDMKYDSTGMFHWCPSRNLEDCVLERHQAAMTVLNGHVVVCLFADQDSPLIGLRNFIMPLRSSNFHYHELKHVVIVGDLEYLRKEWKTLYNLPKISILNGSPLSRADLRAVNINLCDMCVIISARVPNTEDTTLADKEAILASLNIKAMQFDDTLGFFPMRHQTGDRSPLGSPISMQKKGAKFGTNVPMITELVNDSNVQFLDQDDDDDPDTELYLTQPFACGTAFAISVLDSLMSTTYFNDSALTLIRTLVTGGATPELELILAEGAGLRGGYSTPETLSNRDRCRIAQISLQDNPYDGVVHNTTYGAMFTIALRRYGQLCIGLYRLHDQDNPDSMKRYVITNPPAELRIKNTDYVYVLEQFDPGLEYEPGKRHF
Description for Cooperia curticei: In Vitro Assay 6: Cooperia curticei (COOPCU L3)
Solvent: dimethyl sulfoxide
Approximately 40 nematode larvae (Cooperia curticei) are transferred into a test tube containing the compound solution.
After 5 days percentage of larval mortality is recorded. 100% efficacy means all larvae are killed; 0% efficacy means no larvae are killed.
Description for Haemonchus contortus: In Vitro Assay 7: Haemonchus contortus (HAEMCO L3)
Solvent: dimethyl sulfoxide
Approximately 40 larvae of the red stomach worm (Haemonchus contortus) are transferred into a test tube containing compound solution.
After 5 days the percentage of larval mortality is recorded. 100% efficacy means all larvae are killed, 0% efficacy means no larvae are killed.

As to `COc1ccc(F)cc1-c1cccc2c(N3CCC(O)C3)c(C(=O)N[C@H]3CCOc4ccccc43)cnc12` (mixture of isomers) [Example 270], the results for the EC50 (on C. elegans Slo-1a; in series [1]) were 3.16 to 31.6 nM and under 0.1 µg/mL, respectively.

For `O=C(N[C@H]1CCOc2ccccc21)c1cnc2c(-c3cc(Cl)cc(Cl)c3)cccc2c1C1CCNC1` (mixture of isomers) [Example 519], the results for the EC50 (at C. elegans Slo-1a; in series [1]) were 31.6 to 316 nM and under 10 µg/mL, respectively.

Regarding `O=C(N[C@H]1CCOc2ccccc21)c1cnc2c(-c3cc(Cl)cc(Cl)c3)cccc2c1Cl` [Example 4, 4-chloro-8-(3,5-dichlorophenyl)-N-[(4S)-3,4-dihydro-2H-chromen-4-yl]quinoline-3-carboxamide], the EC50 was 3.16 to 31.6 nM on C. elegans Slo-1a and under 0.1 µg/mL in series [1].

`O=C(N[C@H]1CCc2ccccc21)c1cnc2c(-c3cccc(Cl)c3)cccc2c1Cl` [Example 6]: the half-maximal effective concentration (EC50) at C. elegans Slo-1a was 3.16 to 31.6 nM; in series [1] it was under 0.1 µg/mL.

For the compound `CN(C)c1c(C(=O)N[C@H]2CCOc3ccccc32)cnc2c(-c3ccc4ncn(C)c4c3)cccc12` [Example 71], the EC50 is 31.6 to 316 nM on C. elegans Slo-1a and under 1 µg/mL in series [1]. The inhibition at 10 µg/mL in series [2] is over 80%.

With `O=C(N[C@H]1CCc2ccccc21)c1cnc2c(-c3cc(Cl)cc(Cl)c3)cccc2c1N1CC(O)C1` [Example 102], the EC50 at C. elegans Slo-1a is 3.16 to 31.6 nM; in series [1], under 1 µg/mL.

Regarding `CC1CN(c2c(C(=O)N[C@H]3CCc4ccccc43)cnc3c(-c4cc(Cl)cc(Cl)c4)cccc23)C1` [Example 120], the EC50 is 31.6 to 316 nM at C. elegans Slo-1a and under 10 µg/mL in series [1].

With `CN(C)c1c(C(=O)N[C@H]2CCOc3ccccc32)cnc2c(-c3ccc(F)cc3Cl)cc(F)cc12` [Example 180], in the series with Haemonchus contortus, the mortality at 20 ppm is 80%. The EC50 on C. elegans Slo-1a was 3.16 to 31.6 nM; in series [1], under 0.1 µg/mL.

Regarding `O=C(N[C@H]1CCOc2ccccc21)c1cnc2c(-c3ccc(F)c(Cl)c3)cccc2c1N1CCOCC1` [Example 190], the “activity (larval mortality)” value with Cooperia curticei (0.8 ppm, after 5 days) was determined as 80%.

For `COC(=O)c1cc(-c2cccc3c(N4CCOCC4)c(C(=O)N[C@H]4CCOc5ccccc54)cnc23)c2ocnc2c1` [Example 216], the figures for the EC50 (at C. elegans Slo-1a; in series [1]) were 31.6 to 316 nM and under 1 µg/mL, respectively.

On to `COc1cc(F)c(-c2cccc3c(N4CCOCC4)c(C(=O)N[C@H]4CCOc5ccccc54)cnc23)cc1F` [Example 230], for which the values for the concentration for a half-maximal effect (EC50) (on C. elegans Slo-1a; in series [1]) were 31.6 to 316 nM and under 1 µg/mL, respectively.

As to `CC(C)(C)OC(=O)[C@@H]1CCCN1c1c(C(=O)N[C@H]2CCc3ccccc32)cnc2c(-c3cc(Cl)cc(Cl)c3)cccc12` [Example 241], the EC50 was 31.6 to 316 nM on C. elegans Slo-1a and under 1 µg/mL in series [1].

Take `CC(C)(C)OC(=O)[C@@H]1CCCN1c1c(C(=O)N[C@H]2CCOc3ccccc32)cnc2c(-c3cc(Cl)cc(Cl)c3)cccc12` [Example 242]: the figures for the EC50 (at C. elegans Slo-1a; in series [1]) were 31.6 to 316 nM and under 1 µg/mL, respectively.

In turn, `CC(C)(C)OC(=O)[C@@H]1CCCN1c1c(C(=O)N[C@H]2CCOc3ccccc32)cnc2c(-c3cc(Cl)cc(Cl)c3)cccc12` [Example 243, tert-butyl 1-{8-(3,5-dichlorophenyl)-3-[(4S)-3,4-dihydro-2H-chromen-4-ylcarbamoyl]quinolin-4-yl}-L-prolinate] registered an EC50 on C. elegans Slo-1a of 316 to 5010 nM.

With `O=C(N[C@H]1CCOc2ccccc21)c1cnc2c(-c3cc(Cl)cc(Cl)c3)cccc2c1N1CCC[C@@H]1CO` [Example 287], the EC50 on C. elegans Slo-1a is 3.16 to 31.6 nM; in series [1] it was under 10 µg/mL. In addition, the inhibition at 1 µg/mL in series [2] is over 80%.

In the case of `COCCNc1c(C(=O)N[C@H]2CCc3ccccc32)cnc2c(-c3cc(Cl)cc(Cl)c3)cccc12` [Example 298], the EC50 on C. elegans Slo-1a is under 3.16 nM. For the same compound, the mortality at 20 ppm with Cooperia curticei (Cooperia curticei, 120 h, read-out: activity (larval mortality)) was 80%.

With `O=C(N[C@H]1CCc2ccccc21)c1cnc2c(-c3cc(Cl)cc(Cl)c3)cccc2c1N1CCC[C@@H]1C(=O)O` [Example 299], the concentration giving a half-maximal response (EC50) on C. elegans Slo-1a was 31.6 to 316 nM; in series [1], under 1 µg/mL.

`O=C(NC1CCOc2ccccc21)c1cnc2c(-c3cc(Cl)cc(Cl)c3)cccc2c1N1CC2CCC(C1)O2` (stereo not drawn) [Example 302]: the results for the EC50 (on C. elegans Slo-1a; in series [1]) were under 3.16 nM and under 10 µg/mL, respectively. In addition, the inhibition at 1 µg/mL in series [2] was over 80%.

As for `C=C(C)c1c(C(=O)N[C@H]2CCOc3ccccc32)cnc2c(-c3cc(Cl)cc(Cl)c3)cccc12` [Example 317, 8-(3,5-dichlorophenyl)-N-[(4S)-3,4-dihydro-2H-chromen-4-yl]-4-(prop-1-en-2-yl)quinoline-3-carboxamide], the results for the EC50 (on C. elegans Slo-1a; in series [1]) were 3.16 to 31.6 nM and under 0.1 µg/mL, respectively.

Turning to `CCOC(=O)[C@@H]1CCCN1c1c(C(=O)N[C@H]2CCOc3ccccc32)cnc2c(-c3cc(Cl)cc(Cl)c3)cccc12` [Example 320], the EC50 on C. elegans Slo-1a is 3.16 to 31.6 nM; in series [1], under 1 µg/mL.

Consider `O=C(N[C@H]1CCc2ccccc21)c1cnc2c(-c3cc(Cl)cc(Cl)c3)cccc2c1OCC1CCCC1` [Example 348], for which the values for the EC50 (at C. elegans Slo-1a; in series [1]) were 3.16 to 31.6 nM and under 1 µg/mL, respectively.

As for `CCOC(=O)C(C#N)c1c(C(=O)N[C@H]2CCOc3ccccc32)cnc2c(-c3cc(Cl)cc(Cl)c3)cccc12` (stereo partly drawn) [Example 354, ethyl cyano{8-(3,5-dichlorophenyl)-3-[(4S)-3,4-dihydro-2H-chromen-4-ylcarbamoyl]quinolin-4-yl}acetate], the EC50 at C. elegans Slo-1a is 31.6 to 316 nM; in series [1] it was under 1 µg/mL.

For the compound `O=C(N[C@H]1CCOc2ccccc21)c1cnc2c(-c3cc(Cl)cc(Cl)c3)cccc2c1Sc1ccccn1` [Example 363], the EC50 on C. elegans Slo-1a was 316 to 5010 nM; in series [1], under 10 µg/mL. Besides, the inhibition at 10 µg/mL in series [2] is over 80%.

For the compound `COC(=O)CNc1c(C(=O)N[C@H]2CCOc3ccccc32)cnc2c(-c3cc(Cl)cc(Cl)c3)cccc12` [Example 375], the results for the EC50 (on C. elegans Slo-1a; in series [1]) were 3.16 to 31.6 nM and under 0.1 µg/mL, respectively. Also, in series [2], the inhibition at 1 µg/mL is over 80%.

With `CN(C)c1c(C(=O)N[C@H]2CCOc3ccccc32)cnc2c(-c3ccc(C#N)s3)cccc12` [Example 389], the EC50 was 31.6 to 316 nM on C. elegans Slo-1a and under 10 µg/mL in series [1].

In the case of `O=C(N[C@H]1CCOc2ccccc21)c1cnc2c(-c3cc(Cl)cc(Cl)c3)cccc2c1N1CCC(F)(F)CC1` [Example 398], the concentration for a half-maximal effect (EC50) at C. elegans Slo-1a was under 3.16 nM; in series [1] it was under 10 µg/mL.

For the compound `Cc1ncc(-c2cccc3c(N(C)C)c(C(=O)N[C@H]4CCOc5ccccc54)cnc23)s1` [Example 456], the 50% effective concentration (EC50) on C. elegans Slo-1a is 31.6 to 316 nM; in series [1], under 1 µg/mL.

Take `Cc1nc2c(-c3cccc(Cl)c3Cl)cccc2c(N(C)C)c1C(=O)N[C@H]1CCOc2ccccc21` [Example 481, 8-(2,3-dichlorophenyl)-N-[(4S)-3,4-dihydro-2H-chromen-4-yl]-4-(dimethylamino)-2-methylquinoline-3-carboxamide]: the EC50 on C. elegans Slo-1a is 3.16 to 31.6 nM; in series [1], under 10 µg/mL.

With `CN(C)c1c(C(=O)NC2CCOc3ccc(Br)cc32)cnc2c(-c3cc(Cl)cc(Cl)c3)cccc12` (stereo not drawn) [Example 580], the EC50 on C. elegans Slo-1a was 316 to 5010 nM; in series [1] it was under 1 µg/mL.

Turning to `CN(C)c1c(C(=O)NC2COCc3ccccc32)cnc2c(-c3cc(Cl)cc(Cl)c3)cccc12` (stereo not drawn) [Example 581], the EC50 is 31.6 to 316 nM on C. elegans Slo-1a and under 0.1 µg/mL in series [1]. Moreover, the inhibition at 1 µg/mL in series [2] is over 80%.

In the case of `CN(C)C(=O)c1c(C(=O)N[C@H]2CCOc3ccccc32)cnc2c(-c3cc(Cl)cc(Cl)c3)cccc12` [Example 585], the EC50 at C. elegans Slo-1a was 3.16 to 31.6 nM; in series [1] it was under 1 µg/mL. In addition, the inhibition at 1 µg/mL in series [2] is over 80%.

With `O=C(N[C@H]1CCOc2ccccc21)c1cnc2c(-c3cc(Cl)cc(Cl)c3)cccc2c1CO` [Example 592], the EC50 on C. elegans Slo-1a lay in the range of 316 to 5010 nM.

On to `O=C(N[C@H]1CCOc2ccccc21)c1cnc2c(-c3cc(Cl)cc(Cl)c3)cccc2c1CCO` [Example 593], for which the EC50 at C. elegans Slo-1a fell in the range of 3.16 to 31.6 nM.

Take `O=C(N[C@H]1CCOc2ccccc21)c1cnc2c(-c3cc(Cl)cc(Cl)c3)c(O)ccc2c1N1CCOCC1` [Example 616]: the EC50 at C. elegans Slo-1a is under 3.16 nM; in series [1], under 0.1 µg/mL.

Take `O=C(N[C@H]1CCOc2ccccc21)c1cnc2c(-c3cc(Cl)ccc3F)cc(O)cc2c1N1CCOCC1` [Example 626]: the EC50 at C. elegans Slo-1a is 3.16 to 31.6 nM; in series [1], under 0.1 µg/mL. Moreover, in series [2], the inhibition at 1 µg/mL is over 80%.

Take `CN(C)c1c(C(=O)NC2CCOc3c(Br)cccc32)cnc2c(-c3cc(Cl)cc(Cl)c3)cccc12` (stereo not drawn) [Example 634]: the EC50 at C. elegans Slo-1a is 31.6 to 316 nM; in series [1] it was under 0.1 µg/mL. Moreover, the inhibition at 1 µg/mL in series [2] is over 80%.

For the compound `O=C(N[C@H]1CCOc2ccccc21)c1cnc2c(-c3cccc(Cl)c3Cl)cccc2c1C1=CCOCC1` [Example 653], the EC50 is under 3.16 nM on C. elegans Slo-1a and under 0.1 µg/mL in series [1]. Further, in series [2], the inhibition at 1 µg/mL is over 80%.

For `Cn1cc(-c2c(C(=O)N[C@H]3CCOc4ccccc43)cnc3c(-c4cc(Cl)cc(Cl)c4)cccc23)c(=O)n(C)c1=O` [Example 654], the EC50 at C. elegans Slo-1a was 31.6 to 316 nM; in series [1], under 1 µg/mL.

Compound `CN(C)c1c(C(=O)NC2COCc3c(F)cccc32)cnc2c(-c3cc(Cl)cc(Cl)c3)cccc12` (stereo not drawn) [Example 665] yielded an EC50 at C. elegans Slo-1a of 31.6 to 316 nM.
